Columns and labels:
Assay in all cases: relative viability (nuclei count vs DMSO), 5 days (fraction); higher = more cells survive
IMD-0354 + Tozasertib = compound: O=C(Nc1cc(C(F)(F)F)cc(C(F)(F)F)c1)c1cc(Cl)ccc1O [IMD-0354] + Cc1cc(Nc2cc(N3CCN(C)CC3)nc(Sc3ccc(NC(=O)C4CC4)cc3)n2)n[nH]1 [Tozasertib] (partner 0.1 µM)
How it was run: (§1)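 After 5 days of treatment, lung cancer cells in 1536-well plates were fixed and stained in a single step (final 0.05% Triton X-100, 1% formaldehyde, 1 ug/ml Hoechst) and their nuclei counted on 4× images. Treatment had been applied by pin tool the day after seeding as one drug alone or as a fixed anchor-drug dose with five library-drug doses (not always all listed) in √10 steps. Relative viability is the nuclei count of treated wells divided by that of vehicle wells, and values are medians of duplicate plates.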

IMD-0354 + Olaparib = compound: O=C(Nc1cc(C(F)(F)F)cc(C(F)(F)F)c1)c1cc(Cl)ccc1O [IMD-0354] + O=C(c1cc(Cc2n[nH]c(=O)c3ccccc23)ccc1F)N1CCN(C(=O)C2CC2)CC1 [Olaparib] (partner 8 µM)
How it was run: as §1

CX-5461 + Lapatinib = compound: Cc1cnc(CNC(=O)c2c(=O)c3ccc(N4CCCN(C)CC4)nc3n3c2sc2ccccc23)cn1 [CX-5461] + CS(=O)(=O)CCNCc1ccc(-c2ccc3ncnc(Nc4ccc(OCc5cccc(F)c5)c(Cl)c4)c3c2)o1 [Lapatinib] (partner 2 µM)
How it was run: as §1

IMD-0354 + Alpelisib = compound: O=C(Nc1cc(C(F)(F)F)cc(C(F)(F)F)c1)c1cc(Cl)ccc1O [IMD-0354] + Cc1nc(NC(=O)N2CCC[C@H]2C(N)=O)sc1-c1ccnc(C(C)(C)C(F)(F)F)c1 [Alpelisib] (partner 2 µM)
How it was run: as §1

Cell Line	relative viability (IMD-0354 + Tozasertib; first compound 0.04 µM)	relative viability (IMD-0354 + Tozasertib; first compound 0.1265 µM)	relative viability (IMD-0354 + Tozasertib; first compound 0.4 µM)	relative viability (IMD-0354 + Tozasertib; first compound 1.265 µM)	relative viability (IMD-0354 + Tozasertib; first compound 4 µM)	relative viability (IMD-0354 + Olaparib; first compound 0.04 µM)	relative viability (IMD-0354 + Olaparib; first compound 0.1265 µM)	relative viability (IMD-0354 + Olaparib; first compound 0.4 µM)	relative viability (IMD-0354 + Olaparib; first compound 1.265 µM)	relative viability (IMD-0354 + Olaparib; first compound 4 µM)	relative viability (CX-5461 + Lapatinib; first compound 0.01 µM)	relative viability (CX-5461 + Lapatinib; first compound 0.03162 µM)	relative viability (CX-5461 + Lapatinib; first compound 0.1 µM)	relative viability (CX-5461 + Lapatinib; first compound 0.3162 µM)	relative viability (CX-5461 + Lapatinib; first compound 1 µM)	relative viability (IMD-0354 + Alpelisib; first compound 0.04 µM)	relative viability (IMD-0354 + Alpelisib; first compound 0.1265 µM)	relative viability (IMD-0354 + Alpelisib; first compound 0.4 µM)	relative viability (IMD-0354 + Alpelisib; first compound 1.265 µM)	relative viability (IMD-0354 + Alpelisib; first compound 4 µM)
HCC-827	0.437	0.458	0.353	0.353	0.182	0.55	0.614	0.482	0.372	0.21	0.198	0.223	0.22	0.203	0.19	0.888	0.978	0.752	0.574	0.216
HOP-62	0.46	0.374	0.263	0.228	0.108	0.262	0.413	0.347	0.15	0.0835	1.11	1.12	1.23	0.167	0.908	0.839	1.2	0.896	0.837	0.178
LC-2-ad	0.484	0.528	0.377	0.243	0.257	0.699	0.71	0.466	0.364	0.223	0.971	1.02	0.816	0.685	0.476	0.979	0.835	0.397	0.106	0.115
LCLC-97TM1	0.2	0.223	0.171	0.18	0.116	0.407	0.387	0.213	0.154	0.141	1.17	1.02	0.871	–	0.366	–	0.272	0.245	0.207	0.113
LK-2	0.182	0.179	0.207	0.175	0.131	0.695	1.02	–	0.526	0.172	–	1.06	1.01	–	0.817	1.77	0.711	0.647	0.611	0.372
LOU-NH91	0.774	0.626	0.523	0.184	0.174	0.938	0.447	0.285	0.147	0.282	0.63	0.811	0.747	0.442	0.68	0.755	0.729	0.541	0.244	0.231
LU99A	0.326	0.254	0.267	0.244	0.218	0.196	0.269	0.257	0.176	0.179	0.859	1.02	0.86	0.56	0.213	0.517	0.493	0.345	0.247	0.195
LXF-289	0.229	0.235	0.154	0.0929	0.053	0.959	0.945	0.783	0.418	0.0925	0.897	0.936	0.947	0.602	0.487	1.09	1.06	0.711	0.265	0.0502
NCI-H23	0.338	0.376	0.275	0.157	0.186	0.277	0.35	0.24	0.132	0.197	1.15	1.19	0.82	0.266	0.362	0.802	0.695	0.412	0.435	0.243
NCI-H322M	0.469	0.471	0.387	0.289	0.359	0.789	0.773	0.6	0.407	0.517	0.552	0.564	0.644	–	0.655	0.717	0.607	0.695	0.834	0.475
NCI-H358	0.11	0.1	0.0993	0.0845	0.0798	0.569	0.543	0.335	0.14	0.198	0.389	0.447	0.392	0.267	0.306	0.944	0.746	0.429	0.223	0.306
NCI-H460	0.485	0.35	0.443	0.127	0.0269	0.395	0.322	0.363	0.0469	0.0473	1.17	1.11	0.23	0.0503	0.0174	0.544	0.49	0.2	0.0672	0.0154
NCI-H520	0.441	0.379	0.385	0.347	0.229	0.325	0.317	0.318	0.146	0.189	0.782	0.692	0.784	0.619	0.491	0.906	0.948	0.381	0.383	0.214
NCI-H596	1.02	0.946	0.599	0.955	0.503	0.758	0.635	0.701	0.818	0.463	1.07	1.09	0.96	1.1	0.628	0.484	0.458	0.466	0.528	0.326
NCI-H647	0.441	0.379	0.223	0.169	–	0.67	0.485	0.292	0.0684	0.113	1.24	1.1	1.01	0.949	0.226	1.77	0.995	0.623	0.144	0.173
NCI-H650	0.834	0.745	0.644	0.36	0.2	0.329	0.355	0.32	0.211	0.144	0.94	1.01	0.915	0.312	0.934	1.03	1.07	0.943	0.615	0.215
NCI-H661	0.319	0.344	0.34	0.273	0.257	0.752	0.774	0.356	0.256	0.261	0.382	0.533	0.611	–	0.402	0.838	0.772	0.401	0.345	0.248
NCI-H727	0.602	0.673	0.489	0.539	0.453	0.574	0.633	0.617	0.524	0.318	0.862	0.997	0.682	0.729	0.631	0.606	0.641	0.497	0.396	0.352
NCI-H838	0.299	0.286	0.2	0.191	0.172	0.778	0.73	0.426	0.253	0.302	1.17	1.11	1.05	0.252	0.6	1.19	1.06	0.445	0.615	0.331
NCI-H1355	0.598	0.528	0.594	0.271	0.258	0.663	0.769	0.452	0.198	0.175	1.03	0.976	1.15	0.293	0.785	1.07	0.692	0.736	0.561	0.222
NCI-H1395	0.753	0.721	0.683	0.453	0.344	0.449	0.464	0.466	0.361	0.337	0.955	0.899	0.716	0.571	0.563	0.992	0.889	0.98	0.465	0.324
NCI-H1437	0.457	0.394	0.289	0.262	0.224	0.669	0.574	0.376	0.218	0.232	0.779	0.869	–	0.519	0.528	1.24	1.07	0.711	0.219	0.239
NCI-H1651	0.662	0.658	0.317	0.363	0.0982	0.189	0.196	0.177	0.177	0.124	–	0.482	–	0.714	0.117	1.17	0.987	0.584	0.266	0.0691
NCI-H1666	0.672	0.587	0.488	0.369	0.309	0.752	0.748	0.857	0.703	0.562	0.733	0.637	–	0.55	0.398	0.982	0.961	0.966	0.208	0.196
NCI-H1734	0.267	0.267	0.265	0.231	0.117	0.608	0.68	0.465	0.421	0.175	1.08	1.12	0.951	0.553	0.523	0.944	0.786	0.422	0.452	0.254
NCI-H1755	0.566	0.627	0.435	0.407	0.294	0.782	0.907	0.707	0.585	0.23	1.05	1.03	1.06	0.531	0.972	0.964	0.562	0.43	0.57	0.222
NCI-H1793	0.405	0.321	0.233	0.15	0.191	0.856	0.797	0.399	0.213	0.251	0.693	0.628	0.819	0.399	0.643	0.686	0.64	0.34	0.369	0.226

From the supplement of paper PMC10307832
